The record followed here is US12129223B2, “Lipids for use in lipid nanoparticle formulations” (Acuitas Therapeutics, Inc., priority 2021, dated 2024).

In one series the test system is human IgG in mouse serum. Nature of the series: Immunoglobulin G (IgG) mRNA in vivo evaluation using lipid nanoparticle compositions. On the set-up: species or system mice. To be noted: LNP with IgG mRNA, tail vein injection, serum 24 hours after administration; for Serum IgG @ 0.3 mg/kg: 0.3 mg mRNA/kg; for Serum IgG @ 1.0 mg/kg: 1.0 mg mRNA/kg. As to the method:
(§1) A lipid of structure (I), DSPC, cholesterol and PEG-lipid are solubilized in ethanol at a molar ratio of 50:10:38.5:1.5 or 47.5:10:40.7:1.8. Lipid nanoparticles (LNP) are prepared at a total lipid to mRNA weight ratio of approximately 10:1 to 40:1. Briefly, the mRNA is diluted to 0.2 mg/mL in 10 to 50 mM citrate buffer, pH 4 or 10 to 25 mM acetate buffer, pH 4. Syringe pumps are used to mix the ethanolic lipid solution with the mRNA aqueous solution at a ratio of about 1:5 to 1:3 (vol/vol) with total flow rates above 15 mL/min. The ethanol is then removed and the external buffer replaced with PBS by dialysis. Finally, the lipid nanoparticles are filtered through a 0.2 µm pore sterile filter.
Studies are performed in 6-8 week old CD-1/ICR mice (Envigo) according to guidelines established by an institutional animal care committee (ACC) and the Canadian Council on Animal Care (CCAC). Varying doses of mRNA-lipid nanoparticle are systemically administered by tail vein injection and animals euthanized at a specific time point (e.g., 24 hours) post-administration. The whole blood is collected, and the serum subsequentially separated by centrifuging the tubes of the whole blood at 2000×g for 10 minutes at 4° C. and stored at −80° C. until use for analysis.
For immunoglobulin G (IgG) ELISA (Life Diagnostics Human IgG ELISA kit), the serum samples are diluted at 100 to 15000 folds with 1×diluent solution. 100 μL of diluted serum is dispensed into anti-human IgG coated 96-well plate in duplicate alongside human IgG standards and incubated in a plate shaker at 150 rpm at 25° C. for 45 minutes. The wells are washed 5 times with 1× wash solution using a plate washer (400 μL/well). 100 μL of HRP conjugate is added into each well and incubated in a plate shaker at the same condition above. The wells are washed 5 times again with 1× wash solution using a plate washer (400 μL/well). 100 μL of TMB reagent is added into each well and incubated in a plate shaker at the same condition above. The reaction is stopped by adding 100 μL of Stop solution to each well. The absorbance is read at 450 nm (A450) with a microplate reader. The amount of human IgG in mouse serum is determined by plotting A450 values for the assay standard against human IgG concentration.
(§2) Representative compounds of the disclosure shown in Table 2 were formulated using the following molar ratio: 50% cationic lipid/10% distearoylphosphatidylcholine (DSPC)/38.5% Cholesterol/1.5% PEG lipid 2-[2-(ω-methoxy(polyethyleneglycol2000)ethoxy]-N,N-ditetradecyl acetamide) or 47.5% cationic lipid/10% DSPC/40.7% Cholesterol/1.8% PEG lipid. Relative activity was determined by measuring luciferase expression in the liver 4 hours following administration via tail vein injection as described in Example 1 or by measuring the amount of human IgG in mouse serum as described in example 2. The activity was compared at a dose of 1.0 or 0.5 or 0.3 mg mRNA/kg and expressed as ng luciferase/g liver measured 4 hours after administration, as described in Example 1 or as μg IgG/mL serum measured 24 hours after administration, as described in Example 2. Compound numbers in Table 2 refer to the compound numbers of Table 1.

Series [1] is described as follows: Determination of pKa of formulated lipids (TNS fluorescence assay in lipid nanoparticles). Format: physicochemical. To be noted: lipid nanoparticles (compound/DSPC/cholesterol/PEG-lipid), lipid formulated in LNP (lipid/DSPC/cholesterol/PEG-lipid), pH at half-maximal intensity. An outline of the steps:
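LNPs (compound/DSPC/cholesterol/PEG-lipid, 50/10/38.5/1.5 or 47.5:10:40.7:1.8 mol %) diluted to 24 μM lipid in HEPES/MES/ammonium acetate/NaCl buffers, pH 2.5–11, with 1 μM TNS. Fluorescence read at room temperature, ex 321/em 445 nm. pKa taken as pH of half-maximal intensity from sigmoidal fit.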

The subject of series [2] is luciferase expression in the liver. Nature of the series: Luciferase mRNA in vivo evaluation using lipid nanoparticle compositions. Further details: species or system mice. To be noted: LNP with FLuc mRNA, tail vein injection, ng luciferase/g liver 4 hours after administration; for Liver Luc @ 0.3 mg/kg: 0.3 mg mRNA/kg; for Liver Luc @ 1.0 mg/kg: 1.0 mg mRNA/kg. The procedure: as §1
Studies are performed in 6-8 week old female C57BL/6 mice (Charles River) 8-10 week old CD-1 (Harlan) mice (Charles River) according to guidelines established by an institutional animal care committee (ACC) and the Canadian Council on Animal Care (CCAC). Varying doses of mRNA-lipid nanoparticle are systemically administered by tail vein injection and animals euthanized at a specific time point (e.g., 4 hours) post-administration. Liver and spleen are collected in pre-weighed tubes, weights determined, immediately snap frozen in liquid nitrogen and stored at −80° C. until processing for analysis.
For liver, approximately 50 mg is dissected for analyses in a 2 mL FastPrep tubes (MP Biomedicals, Solon OH). ¼″ ceramic sphere (MP Biomedicals) is added to each tube and 500 μL of Glo Lysis Buffer—GLB (Promega, Madison WI) equilibrated to room temperature is added to liver tissue. Liver tissues are homogenized with the FastPrep24 instrument (MP Biomedicals) at 2×6.0 m/s for 15 seconds. Homogenate is incubated at room temperature for 5 minutes prior to a 1:4 dilution in GLB and assessed using SteadyGlo Luciferase assay system (Promega). Specifically, 50 μL of diluted tissue homogenate is reacted with 50 μL of SteadyGlo substrate, shaken for 10 seconds followed by 5 minute incubation and then quantitated using a CentroXS^3 LB 960 luminometer (Berthold Technologies, Germany). The amount of protein assayed is determined by using the BCA protein assay kit (Pierce, Rockford, IL). Relative luminescence units (RLU) are then normalized to total μg protein assayed. To convert RLU to ng luciferase a standard curve is generated with QuantiLum Recombinant Luciferase (Promega).
The FLuc mRNA (L-6107) from Trilink Biotechnologies will express a luciferase protein, originally isolated from the firefly, Photinus pyralis. FLuc is commonly used in mammalian cell culture to measure both gene expression and cell viability. It emits bioluminescence in the presence of the substrate, luciferin. This capped and polyadenylated mRNA is fully substituted with 5-methylcytidine and pseudouridine.
as §2

As usually defined, the pKa is the negative logarithm of the acid dissociation constant.

With `CCCCCCCCCCN(CCCCCCCCCC)C(=O)CCCCCCCN(CCCCCO)CCCCCCCC(=O)N(CCCCCCCCCC)CCCCCCCCCC` [Compound I-21, 8,8′-((5-hydroxypentyl)azanediyl)bis(N,N-didecyloctanamide)], in the series on human IgG in mouse serum, the “Serum IgG @ 0.3 mg/kg” value came to 48.78 ± 6.88 µg/mL and the “Serum IgG @ 1.0 mg/kg” value worked out at 220.38 ± 62.57 µg/mL. The same compound came in with a pKa in series [1] of 6.54. Also, in series [2], the “Liver Luc @ 0.3 mg/kg” value is recorded as 29492 ± 4887 ng/g and the “Liver Luc @ 1.0 mg/kg” value is 43216 ± 25636 ng/g.
On the same counts, the results for `CCCCCCCCCCN(CCCCCCCCCC)C(=O)CCCCCCCN(CCO)CCCCCCCC(=O)N(CCCCCCCCCC)CCCCCCCCCC` [Compound I-22, 8,8′-((2-hydroxyethyl)azanediyl)bis(N,N-didecyloctanamide)] are 31.00 ± 9.33 µg/mL, 99.12 ± 18.03 µg/mL, 6.47, 12829 ± 3326 ng/g and 38933 ± 23162 ng/g.
The like results for `CCCCCCCCCCN(CCCCCCCCCC)C(=O)CCCCCCCN(CCCCO)CCCCCCCC(=O)N(CCCCCCCCCC)CCCCCCCCCC` [Compound I-23, 8,8′-((4-hydroxybutyl)azanediyl)bis(N,N-didecyloctanamide)] were, in that order, 43.34 ± 7.70 µg/mL, 103.91 ± 31.29 µg/mL, 6.48, 15876 ± 7588 ng/g and 34202 ± 19178 ng/g.
On the same counts, the results for `CCCCCCCCCCN(CCCCCCCCCC)C(=O)CCCCCCCN(CCCCCCO)CCCCCCCC(=O)N(CCCCCCCCCC)CCCCCCCCCC` [Compound I-24, 8,8′-((6-hydroxyhexyl)azanediyl)bis(N,N-didecyloctanamide)] are 27.46 ± 9.22 µg/mL, 112.31 ± 14.51 µg/mL, 6.24, 9106 ± 1760 ng/g and 38913 ± 14318 ng/g.
